# Literature values in patent US20220241222A1, “ATOMOXETINE HYDROCHLORIDE EXTENDED RELEASE COMPOSITIONS AND METHODS OF USE” (CELISTA PHARMACEUTICALS LLC, priority 2019, published 2022).
# Like-named read-outs stand apart in the source and are kept apart here.
# How the values were obtained:
# [1] = for mean apparent plasma clearance / mean half-life: oral administration
# [2] = oral, immediate release capsules
# [3] = CYP2D6 poor metabolizers vs EMs
# [4] = primarily as 4-hydroxyatomoxetine-O-glucuronide
structure (smiles),measurement,setting,value
"Cc1ccccc1O[C@H](CCN)c1ccccc1 [N-desmethylatomoxetine, N-Desmethylatomoxetine]",plasma concentrations compared with atomoxetine,[1]; circulating metabolite,lower concentrations
"CNCC[C@@H](Oc1ccccc1C)c1ccccc1.Cl [Atomoxetine hydrochloride, (−)-N-Methyl-3-phenyl-3-(o-tolyloxy)-propylamine hydrochloride]",absolute bioavailability,[1]; extensive metabolizers,63%
same,absorption after oral administration,[1]; from immediate release capsules,well-absorbed
same,effect of food on absorption,[1]; [2],minimally affected by food
same,estimated half-life,[1]; [2],about 5 hours
same,absolute bioavailability,[1]; poor metabolizers,94%
"CNCC[C@@H](Oc1ccccc1C)c1ccccc1 [atomoxetine, (−)-N-Methyl-3-phenyl-3-(o-tolyloxy)-propylamine]",pressor response,patients with central autonomic impairment (multiple system atrophy),large pressor responses
same,seated and standing systolic blood pressure compared to placebo,pediatric dose of 18 mg,significantly increases
same,"AUC of atomoxetine, PMs greater than EMs",[1]; [3],approximately 10 fold
same,"Css, max, PMs greater than EMs",[1]; [3],about 5 fold
same,mean apparent plasma clearance,[1]; PMs,0.5 mL/min/kg
same,mean half-life,[1]; PMs,21.6 h
same,mean apparent plasma clearance,[1]; adult EMs,5.83 mL/min/kg
same,mean half-life,[1]; adult EMs,5.2 h
same,excretion in the feces,[1]; [4],less than 17 % of the dose
same,excretion in the urine,[1]; [4],greater than 80 % of the dose
